Values of other authors, collected in patent US11304932B2, “Diaryl and arylheteroaryl urea derivatives as modulators of the 5-HT2A serotonin receptor useful for the prophylaxis and treatment of hallucinations associated with a neurodegenerative disease” (Axovant Sciences GmbH, priority 2015, dated 2022).

Legend:
[1] = clozapine at low dose

Compound | tolerability and PK/PD profile (daily dose of 80 mg, studies completed to date) | safety and tolerability profile (previous clinical studies to date, proposed dose range) | efficacy in psychotic symptoms associated with Parkinson's Disease [1]
COc1ccc(NC(=O)Nc2ccc(F)cc2F)cc1-c1c(Br)cnn1C [Nelotanserin, 1-[3-(4-bromo-2-methyl-2H-pyrazol-3-yl)-4-methoxy-phenyl]-3-(2,4-difluoro-phenyl)-urea] | favorable tolerability and PK/PD profile | acceptable safety and tolerability profile | 
CC(C)COc1ccc(CNC(=O)N(Cc2ccc(F)cc2)C2CCN(C)CC2)cc1 [pimavanserin, N-(4-fluorophenylmethyl)-N-(1-methylpiperidin-4-yl)-N′-(4-(2-methylpropyloxy)phenylmethyl)carbamide] |  |  | demonstrate efficacy
